Assays:
A549 cells = experiment: Cell cycle analysis / CSE induced apoptosis in A549 cells; format: cell-based; conditions: compound alone, CSE 72 h
Experimental: A549 cells were plated in 6-well plates at a density of 100,000 cells per well and stimulated with CSE for 72 h. After incubation, cells were fixed in 70% ethanol and stored at 4° C. till analysis. Cells were stained with Guava Cell Cycle reagent according to the manufacturer's instructions. Cell cycle data were obtained using the Guava Personal Cell Analysis System (Millipore, USA).

[1] = system: macrophage and neutrophil infiltration; experiment: Chronic cigarette smoke induced cell infiltration in male Balb/c mice; format: in vivo; conditions: alone at 1 mg/kg oral; chronic CS, mouse
Experimental: Animals were acclimatized for seven days prior to the start of the experiment. Animals were randomly distributed to various groups based on their body weights. Mice were exposed to the mainstream smoke of 4 cigarettes from day 1 to day 11. Exposure to the smoke of each cigarette lasted for […] (each cigarette was completely burned in the first two minutes, followed by an air flow with animal ventilator) and were exposed for the next 20 min with fresh room air. After every second cigarette an additional break of 20 min with exposure to fresh room air was conducted. Control animals were exposed to the room air chamber. Test compound was administered by the oral route from day 6 to day 11 before 30 mins whole body smoke exposure. On day 12, 24 hours after the last cigarette smoke (CS) exposure animals were exsanguinated under anaesthesia, and the trachea was cannulated and the lungs were lavaged with 0.5 ml aliquots of heparinised PBS (1 unit/nil) four times through tracheal cannula (total volume 2 ml). Bronchioalveolar (BAL) collected was stored at 2-8° C. until assayed for total cell and differential leukocyte count. BAL fluid was centrifuged (500×g for 10 min) and the resulting cell pellet was resuspended in 0.5 ml of heparinised saline. The total number of white blood cells was determined in BAL fluid and blood using a blood cell counter and adjusted to 1×10^6 cell/ml. Differential cell count was calculated manually Forty microliters of the cell suspension was centrifuged using cytospin 3 to prepare a cell smear. The cell smear was stained with a blood staining solution for differentiation and microscopically observed by identifying each cell according to its morphological characteristics. The number of each cell type among 300 white blood cells in the cell smear was determined and expressed as a percentage, and the number of neutrophils and macrophages in each BAL fluid were calculated.

elastase = experiment: fMLP induced elastase release from human neutrophils; format: cell-based; conditions: Neutrophil, compound alone
Experimental: Blood was procured from a local blood bank. Neutrophils were obtained using the dextran sedimentation method. Cells were plated at 100,000 cells per well in a 96-well plate, treated with fMLP (1 μM) and N-Succinyl-Ala-Ala-Ala-p-nitroanalide (1 μM) (Sigma) and incubated for 2 h. Intensity of digested substrate after incubation was determined by measuring the absorbance at 405 nm on a Fluostar Omega (BMG Labtech, NC, USA).

MMP-9 = MMP-9 release from PMA-induced THP-1 cells (gelatin zymography); format: cell-based, human; conditions: Homo sapiens; compound alone; THP-1 cells, PMA; read-out: IC50 for the reduction of MMP-9
Experimental: Gelatinase activity of MMP-9 was determined by zymography. Proteins in supernatant (after incubation of THP-1 cells with 50 ng PMA for 24 h) were separated on gels containing 0.1% gelatin (Sigma, USA). Gels were re-natured by incubation in 2.5% Triton X-100 for 30 min, incubated overnight in substrate buffer (50 mMTris-HCl, pH 7.5) containing 10 mM CaCl2 and 0.05% ZnCl2 at 37° C. and stained with Coomassie brilliant blue (0.5%). […] Molecular weight markers (Fermentas, Lithuania) were run with each gel. Band intensity was calculated using ImageJ 1.42 (NIH, USA).

TNFα = experiment: LPS induced TNFα in PBMC; format: cell-based; conditions: 10 nM alone, LPS
Experimental: PBMC (peripheral blood mononuclear cells) from whole blood were isolated by density gradient using Histopaque and incubated with the desired concentration of inhibitor for 15 minutes. LPS (1 μg/ml) was added and then incubated for 24 hours. The supernatant was collected and TNFα estimated using an eBioscience TNFα ELISA kit.
PBMC from whole blood were isolated by density gradient using Histopaque and incubated with the desired concentration of inhibitor for 15 minutes. LPS (1 μg/m1) was added and then incubated for 24 hours. The supernatant was collected and TNFα estimated using an eBioscience TNFα ELISA kit.

neutrophil infiltration = experiment: Lipopolysaccharide induced pulmonary neutrophilia in female Wistar rats; format: in vivo
Experimental: After the quarantine period, fasted animals were randomized and divided into groups depending on their body weights. Test compound was prepared as a suspension in a vehicle consisting of 0.5% methylcellulose in which Tween 80 was used as a suspending agent. Compounds or vehicle were administered by oral gavage in a volume of 10 mL/kg. Animals were anaesthetized with ketamine and LPS solution was administered intratracheally 30 minutes after compound administration at a dose of 1 mg/kg. Six hours after LPS instillation, animals were exsanguinated under anaesthesia, and the trachea was cannulated, and lungs were lavaged with 5-ml aliquots of heparinised PBS (1 unit/ml) four times through the tracheal cannula (total volume 20 ml). Bronchioalveolar (BAL) fluid was stored at 2-8° C. until assayed for total cell and differential leukocyte count. BAL fluid was centrifuged (500×g for 10 min) and the resulting cell pellet was resuspended in 0.5 ml of heparinised saline. The total numbers of white blood cells were determined in BAL fluid or blood using a cell counter and were adjusted to 1×10^6 cell/ml. Differential cell count was calculated manually. One hundred microliters of the cell suspension was centrifuged using cytospin 3 to prepare a cell smear. The cell smear was stained with a blood staining solution for differentiation and slides were microscopically observed to identify eosinophils according to their morphological characteristics. The number of each cell type among 300 white blood cells in the cell smear was determined and expressed as a percentage of total cells. The number of eosinophil in BALF was calculated.
The procedure for LPS induced pulmonary neutrophilia in female Wistar rats as described in Example 1 was performed with compound A1 and roflumilast.

pAkt (S473) = experiment: phospho-Akt (S473) in differentiated U937 cells stimulated with cigarette smoke extract (SDS-PAGE); format: cell-based; conditions: Homo sapiens, U-937; compound alone; differentiated U937, CSE; read-out: IC50 of inhibition of Akt phosphorylation
Experimental: U-937 monocytes were differentiated into macrophages by incubation with 50 ng/ml PMA for 48 h. Cells were trypsinized and plated at a density of 100,000 per well and stimulated with CSE for 2 h in starvation media. Lysates were made using RIPA buffer and run by SDS-PAGE, transferred to PVDF membrane and probed with phospho-Akt (S473) antibody (Cell signaling, USA) followed by anti-rabbit IgG (Cell signaling, USA). Band intensity was calculated using ImageJ 1.42 (NIH, USA).

- IC50 (elastase; human neutrophils, read-out: IC50 of inhibition of fMLP induced elastase release): 10.2 nM
- IC50 (MMP-9): 577 nM
- IC50 (pAkt (S473)): 1930 nM
Structure (SMILES): O=C(Nc1c(Cl)cncc1Cl)c1ccc(OC(F)F)c(OCC2CC2)c1 [Compound A, roflumilast, reference compound]
- inhibition of apoptosis (A549 cells): dose-dependent inhibition of apoptosis
- inhibition of macrophage infiltration [1]: 6.30%
- inhibition of neutrophil infiltration [1]: 34.60%
- Emax (elastase; Homo sapiens, read-out: Emax of inhibition of elastase release): 43%
- decrease of TNFα secretion (TNFα): 25%
- percent inhibition of neutrophil infiltration (neutrophil infiltration; 0.3 mg/kg oral, rat BAL fluid 6 h after LPS): −7.89%
- percent inhibition of neutrophil infiltration (neutrophil infiltration; 1 mg/kg oral, dose-response study, rat): 43.46%
- percent inhibition of neutrophil infiltration (neutrophil infiltration; 3 mg/kg oral, rat): 68.02%
- percent inhibition of neutrophil infiltration (neutrophil infiltration; 10 mg/kg oral, rat): 92.21%
- ED50 (neutrophil infiltration; Neutrophil, oral, rat LPS pulmonary neutrophilia, read-out: 50% inhibition (ED50) dose, neutrophil infiltration): 1.8 mg/kg
- inhibition of neutrophil infiltration (neutrophil infiltration; combination study, alone at 1.8 mg/kg, rat): 36.18%
